# Measured values taken from US11028090B2 (Dong Wha Pharm. Co., Ltd., priority 2017, dated 2021).
# Like-named read-outs stand apart in the source and are kept apart here.
# What was measured:
# [1] = target: BRD4 (BD1+BD2) bromodomain (Homo sapiens (Human), UniProt O60885); test: BRD4 binding inhibition (AlphaScreen, GST-BRD4 vs tetraacetylated histone H4 peptide)
# Method in brief: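 AlphaScreen read after 30 min dark incubation at room temperature with glutathione acceptor/streptavidin donor beads (10 μg/ml each). The beads were added to compound plus 100 nM biotin-H4 (K5,8,12,16-acetyl) peptide and 100 nM GST-BRD4 BD1+BD2 in pH 7.4 HEPES/Tween/BSA/DTT buffer.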
# [2] = tested on: acute myelogenous leukemia cells (MV-4-11 cells); test: Cytotoxicity to acute myelogenous leukemia cells (MV-4-11 cells), CCK-8; conditions: Homo sapiens, MV4-11, 72 h
# [3] = GST-BRD4 (BD1+BD2) / biotinylated acetyl-histone H4 (Lys5,8,12,16) peptide, read-out: IC50, BRD4 binding inhibition
# [4] = GST-BRD4 (BD1+BD2) vs biotinylated acetyl-histone H4 peptide, AlphaScreen, read-out: BRD4 IC50
# [5] = read-out: MV-4-11 Cytotoxicity IC50
# [6] = read-out: IC50, cytotoxicity against acute myelogenous leukemia cells
SMILES,"IC50 [1, 3] [nM]","IC50 [1, 4] [nM]","IC50 [2, 5] [nM]","IC50 [2, 6] [nM]"
"Cc1nnc2c(NCCCCNC(=O)NC3CCCCC3)nc3cc(-c4nc5ccccc5n4C)ccc3n12 [Example 239, 1-cyclohexyl-3-{4-[1-methyl-7-(1-methyl-1H-benzoimidazole-2-yl)-[1,2,4]triazolo[4,3-a]quinoxaline-4-ylamino]-butyl}-urea]",≤ 50,18,660,
"Cc1nnc2c(NCCCCNC(=O)[C@@H](O)C(C)C)nc3ccccc3n12 [Example 10, 2-(S)-hydroxy-N-[4-(1-methyl-[1,2,4]triazolo[4,3-a]quinoxaline-4-ylamino)-butyl]-3-methyl-butyramide]",≤ 10,5,160,
"COc1cc2nc(NCCCCNC(=O)OCc3ccccc3)c3nnc(C)n3c2cc1OC [Example 68, [4-(7,8-dimethoxy-1-methyl-[1,2,4]triazolo[4,3-a]quinoxaline-4-ylamino)-butyl]-carbamic acid benzylester]",≤ 50,38,450,
"COc1cc2nc(NCCCCC(=O)NCc3ccco3)c3nnc(C)n3c2cc1OC [Example 650, 5-(7,8-dimethoxy-1-methyl-[1,2,4]triazolo[4,3-a]quinoxaline-4-ylamino)-pentanoic acid-(furan-2-ylmethyl)-amide]",≤ 50,18,220,
"CCCn1c(-c2ccc3c(c2)nc(NCCCCNC(=O)CC(C)C)c2nnc(C)n23)nc2ccccc21 [Example 240, 3-methyl-N-{4-[1-methyl-7-(1-propyl-1H-benzoimidazole-2-yl)-[1,2,4]triazolo[4,3-a]quinoxaline-4-ylamino]-butyl}-butyramide]",≤ 10,0.9,158,≤ 200
"CNc1cc2c(cc1OC)nc(NCCCCNC(=O)CC(C)C)c1nnc(C)n12 [Example 557, N-[4-(7-methoxy-1-methyl-8-methylamino-[1,2,4]triazolo[4,3-a]quinoxaline-4-ylamino)-butyl]-3-methyl-butyramide]",≤ 50,13,280,
"Cc1nnc2c(NCCCCNC(=O)OC3CCCC3)nc3cc(-c4nc5ccccc5n4C)ccc3n12 [Example 229, {4-[1-methyl-7-(1-methyl-1H-benzoimidazole-2-yl)-[1,2,4]triazolo[4,3-a]quinoxaline-4-ylamino]-butyl}-carbamic acid cyclopentylester]",≤ 10,3,150,≤ 200
"COc1cc2nc(NCCCCNC(=O)CC(C)C)c3nnc(C)n3c2cc1[N+](=O)[O-] [Example 555, N-[4-(7-methoxy-1-methyl-8-nitro-[1,2,4]triazolo[4,3-a]quinoxaline-4-ylamino)-butyl]-3-methyl-butyramide]",,65,118,≤ 200
"Cc1nnc2c(NCCCCNC(=O)CC(C)C)nc3cc(N4C[C@@H](C)O[C@@H](C)C4)ccc3n12 [Example 510, N-{4-[7-(2,6-dimethyl-morpholine-4-yl)-1-methyl-[1,2,4]triazolo[4,3-a]quinoxaline-4-ylamino]-butyl}-3-methyl-butyramide]",,57,335,
"Cc1nnc2c(NCCCCNC(=O)Cc3cccs3)nc3cc(OCCN4CCOCC4)ccc3n12 [Example 438, N-{4-[1-methyl-7-(2-morpholine-4-yl-ethoxy)-[1,2,4]triazolo[4,3-a]quinoxaline-4-ylamino]-butyl}-2-thiophene-2-yl-acetamide]",≤ 50,37,33,≤ 200
"COc1cc2c(cc1F)nc(NCCCCNC(=O)CC(C)C)c1nnc(C)n12 [Example 575, N-[4-(7-fluoro-8-methoxy-1-methyl-[1,2,4]triazolo[4,3-a]quinoxaline-4-ylamino)-butyl]-3-methyl-butyramide]",,51,337,
"Cc1nnc2c(NCCCCNC(=O)CC(C)C)nc3cc(N4CCOCC4)ccc3n12 [Example 499, 3-methyl-N-[4-(1-methyl-7-morpholine-4-yl-[1,2,4]triazolo[4,3-a]quinoxaline-4-ylamino)-butyl]-butyramide]",≤ 10,10,140,≤ 200
"CCC(C)CC(=O)NCCCCNc1nc2cc(-n3ccnc3)ccc2n2c(C)nnc12 (stereo not drawn) [Example 495, 3-methyl-pentanoic acid-[4-(7-imidazole-1-yl-1-methyl-[1,2,4]triazolo[4,3-a]quinoxaline-4-ylamino)-butyl]-amide]",≤ 50,12,29,≤ 200

# Continued, in another order:
"IC50 [1, 3] [nM]","IC50 [1, 4] [nM]",SMILES,"IC50 [2, 5] [nM]","IC50 [2, 6] [nM]"
≤ 50,18,"COc1ccc2c(c1)nc(NCCCCNC(=O)[C@@H](NS(C)(=O)=O)C(C)C)c1nnc(C)n12 [Example 327, 2-(S)-methanesulfonylamino-N-[4-(7-methoxy-1-methyl-[1,2,4]triazolo[4,3-a]quinoxaline-4-ylamino)-butyl]-3-methyl-butyramide]",140,≤ 200
≤ 50,12,"COCCOc1ccc2c(c1)nc(NCCCCNC(=O)c1cccc(F)c1)c1nnc(C)n12 [Example 410, 3-fluoro-N-{4-[7-(2-methoxy-ethoxy)-1-methyl-[1,2,4]triazolo[4,3-a]quinoxaline-4-ylamino]-butyl}-benzamide]",790,
≤ 50,41,"COc1ccc2c(c1)nc(NCCCCNC(=O)[C@H](C(C)C)N1CCC(O)CC1)c1nnc(C)n12 [Example 316, 2-(S)-(4-hydroxy-piperidine-1-yl)-N-[4-(7-methoxy-1-methyl-[1,2,4]triazolo[4,3-a]quinoxaline-4-ylamino)-butyl]-3-methyl-butyramide]",730,
≤ 50,18,"COc1ccc2c(c1)nc(NCCCCNC(=O)[C@@H](C(C)C)N(C)C)c1nnc(C)n12 [Example 312, 2-(R)-dimethylamino-N-[4-(7-methoxy-1-methyl-[1,2,4]triazolo[4,3-a]quinoxaline-4-ylamino)-butyl]-3-methyl-butyramide]",510,
≤ 10,7,"CSc1ccc2c(c1)nc(NCCCCNC(=O)[C@@H](O)C(C)C)c1nnc(C)n12 [Example 358, 2-(S)-hydroxy-3-methyl-N-[4-(1-methyl-7-methylsulfanyl-[1,2,4]triazolo[4,3-a]quinoxaline-4-ylamino)-butyl]-butyramide]",160,
,56,"CSc1ccc2c(c1)nc(NCCCCNC(=O)OC(C)(C)C)c1nnc(C)n12 [Example 354, [4-(1-methyl-7-methylsulfanyl-[1,2,4]triazolo[4,3-a]quinoxaline-4-ylamino)-butyl]-carbamic acid-tert-butylester]",472,
≤ 50,12,"CCC(C)CNC(=O)CCCCNc1nc2cc(OC)ccc2n2c(C)nnc12 (stereo not drawn) [Example 656, 5-(7-methoxy-1-methyl-[1,2,4]triazolo[4,3-a]quinoxaline-4-ylamino)-pentanoic acid-(2-methyl-butyl)-amide]",150,≤ 200
≤ 50,43,"COc1ccc2c(c1)nc(NCCCCNC(=O)c1ccccc1F)c1nnc(C)n12 [Example 328, 2-fluoro-N-[4-(7-methoxy-1-methyl-[1,2,4]triazolo[4,3-a]quinoxaline-4-ylamino)-butyl]-benzramide]",190,≤ 200
≤ 10,7,"COCCOc1ccc2c(c1)nc(NCCCCNC(=O)Cc1ccco1)c1nnc(C)n12 [Example 407, 2-furan-2-yl-N-{4-[7-(2-methoxy-ethoxy)-1-methyl-[1,2,4]triazolo[4,3-a]quinoxaline-4-ylamino]-butyl}-acetamide]",180,
≤ 50,11,"CCCOC(=O)N[C@H](C(=O)NCCCCNc1nc2cc(OC)ccc2n2c(C)nnc12)C(C)C [Example 319, (S)-{1-[4-(7-methoxy-1-methyl-[1,2,4]triazolo[4,3-a]quinoxaline-4-ylamino)-butylcarbamoyl]-2-methyl-propyl}-carbamic acid propylester]",114,≤ 200
≤ 50,16,"CCc1nnc2c(NCCCCNC(=O)OC(C)(C)C)nc3cc(OC)ccc3n12 [Example 620, [4-(7-methoxy-1-ethyl-[1,2,4]triazolo[4,3-a]quinoxaline-4-ylamino)-butyl]-carbamic acid-tert-butylester]",700,
≤ 50,38,"Cc1nnc2c(NCCCCNC(=O)OC(C)(C)C)nc3cc(N4CCOCC4)ccc3n12 [Example 497, [4-(1-methyl-7-morpholine-4-yl-[1,2,4]triazolo[4,3-a]quinoxaline-4-ylamino)-butyl]-carbamic acid-tert-butylester]",730,
≤ 50,26,"CCOc1cc2nc(NCCCCNC(=O)OC(C)C)c3nnc(C)n3c2cc1OCC [Example 175, [4-(7,8-diethoxy-1-methyl-[1,2,4]triazolo[4,3-a]quinoxaline-4-ylamino)-butyl]-carbamic acid isopropylester]",260,
≤ 50,33,"COc1ccc2c(c1)nc(NCCCCNC(=O)[C@H](C(C)C)N(C)C)c1nnc(C)n12 [Example 313, 2-(S)-dimethylamino-N-[4-(7-methoxy-1-methyl-[1,2,4]triazolo[4,3-a]quinoxaline-4-ylamino)-butyl]-3-methyl-butyramide]",570,
